The values below come from patent publication US8470379B2, “Use of a potent product extracted from rhizomes of zingiber officinale in treating a disease associated with Helicobacter pylori” (Medical and Pharmaceutical Industry Technology and …, priority 2007, dated 2013).

Assay [1] has as its system Helicobacter pylori (ATCC 43504). Nature of the assay: Anti-microbial test: MIC by agar dilution method. The following applies: ATCC43504, Columbia agar + 7% rabbit blood, 35° C., 72 hours, microaerophilic, highest concentration 300 μg/ml, read-out: Minimum inhibitory concentration (MIC). It is filed as cell-based. The method, then:
Minimum inhibitory concentration (MIC) of sample on Helicobacter pylori was determined by the agar dilution method [Malanosk G. J. et al. Effect of pH variation on the susceptibility of Helicobacter pylori to three marcolide antimicrobial agents and temafloxacin. Eur. J. Clin. Microbial Infect Dis. 12: pp. 131-133, 1993.]. The test substance was dissolved and serially diluted in DMSO to desired stock concentrations. For each concentration tested, a 0.01 ml aliquot is added to a 48-well plate containing 0.99 ml of Columbia agar base (Oxoid, England) supplemented 7% defibrinated rabbit blood. The inoculum of Helicobacter pylori (ATCC 43504) is prepared by suspending in brain heart infusion broth to a density of 5×10^5 CFU/ml. The final maximal concentration of DMSO is 1% and the initial test substance concentration is 300 μg/ml. The plates are incubated at 35° C. for 72 hours in the microaerophilic condition (Mixed gas N2 85%, CO2 10% and O2 5%) and then visually examined and scored positive (+) for inhibition of the colonies growth or negative (−) for no effect upon growth colonies. Vehicle-control and gentamicin are used as blank and positive controls, respectively. Each concentration is evaluated in duplicate.
For orientation: In agar dilution, organisms are placed on agar that contains the substance at set levels.

Assay [2] has as its system Helicobacter pylori-induced gastric ulcer. Nature of the assay: Helicobacter pylori-induced gastric ulcer in mice. The assay is classed as in vivo, male CD-1 (Crl.) derived mice. The following applies: 35 mg/kg orally for 7 days. The protocol: Effects of samples on Helicobacter pylori-induced gastric ulcer were evaluated as described previously [Marchetti, M., Arico, B., Burroni, D., Figura, N., Rappuoli, R. and Ghiara, P. Development of a mouse model of Helicobacter pylori infection that mimics human disease. Science 267: 1655-1658, 1995.]. Groups of 5 male CD-1 (Crl.) derived mice weighing 24±2 g were fasted for 18 hours prior to intragastric inoculation of clinical isolated Helicobacter pylori in suspension at 3.2×10^9 colony formation units/0.4 ml/mouse. Test samples and vehicle (2% CMC, 10 ml/kg) were each administered orally to test animals, starting one hour after the Helicobacter pylori inoculation, dosing twice daily (10:00 am and 4:00 pm) for 7 consecutive days. Omeprazole (1 mg/kg) and clarithromycin (10 mg/kg), in combination, were used for the positive control agents and administered orally to test animal once daily for 7 consecutive days under the same schedule. […] Gastric ulceration scored at four levels according to the degree of hemorrhage and severity of ulcerative lesions: • 0=normal appearance • 1=mild red spots • 2=moderate red spots and/or hemorrhage spots • 3=marked hemorrhage spots
Percentage inhibition on Helicobacter pylori-induced gastric ulcer was calculated as follows: (Scores of vehicle group−Scores of test group)/(Scores of vehicle group)×100% The results are shown in Table 3.

Take `CCCCC/C=C/C(=O)CCc1ccc(O)c(OC)c1` [Shogaol]: in assay [1], the MIC came out at 10 µg/mL.
Take `CCCCC[C@H](O)CC(=O)CCc1ccc(O)c(OC)c1` [Sample 6-Gingerol, 6-Gingerol]: the “Percentage inhibition on Helicobacter pylori-induced gastric ulcer” value in assay [2] is given as 25%. Besides, the MIC in assay [1] was 10 µg/mL.
